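Compound exposure: 48 hours, 5 concentrations, 96-well plates. GI50 is the concentration that inhibits growth by half.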 Calls of active or inactive are those of the source. No stated cut-off is given here; in the data, active = GI50 up to about 1.1 µM and inactive = higher.
Experiments:
Assay in all cases: NCI tumour cell line growth inhibition, 48 h
[1] = test system: 786-0
[2] = test system: A549
[3] = test system: ACHN
[4] = test system: CAKI-1
[5] = test system: CCRF-CEM
[6] = test system: DU-145
[7] = test system: Hs-578T
[8] = test system: KM12
[9] = test system: MDA-MB-435
[10] = test system: MDA-N
[11] = test system: NCI-H226
[12] = test system: OVCAR-4
[13] = test system: OVCAR-5
[14] = test system: PC-3
[15] = test system: SF-268
[16] = test system: SK-MEL-5
[17] = test system: SK-OV-3
[18] = test system: SNB-19
[19] = test system: TK-10
[20] = test system: U-251

CCNC(=O)Cc1nc2c(O)ncnc2n1C1OC(CO)C(O)C1O (stereo not given)
GI50 [1]: > 100 µM (inactive)
GI50 [2]: > 100 µM (inactive)
GI50 [3]: > 100 µM (inactive)
GI50 [4]: > 100 µM (inactive)
GI50 [5]: > 100 µM (inactive)
GI50 [6]: > 100 µM (inactive)
GI50 [7]: > 100 µM (inactive)
GI50 [8]: > 100 µM (inactive)
GI50 [9]: > 100 µM (inactive)
GI50 [10]: > 100 µM (inactive)
GI50 [11]: > 100 µM (inactive)
GI50 [12]: > 100 µM (inactive)
GI50 [13]: > 100 µM (inactive)
GI50 [14]: > 100 µM (inactive)
GI50 [15]: > 100 µM (inactive)
GI50 [16]: > 100 µM (inactive)
GI50 [17]: > 100 µM (inactive)
GI50 [18]: > 100 µM (inactive)
GI50 [19]: > 100 µM (inactive)
GI50 [20]: > 100 µM (inactive)

NCCCNC1(c2cc3ccccc3s2)CCCCC1
GI50 [1]: 2 µM (inactive)
GI50 [2]: 7.1 µM (inactive)
GI50 [3]: 11.9 µM (inactive)
GI50 [4]: 8.43 µM (inactive)
GI50 [5]: 2.48 µM (inactive)
GI50 [6]: 12 µM (inactive)
GI50 [7]: 11.9 µM (inactive)
GI50 [8]: 3.22 µM (inactive)
GI50 [9]: 1.94 µM (inactive)
GI50 [10]: 1.78 µM (inactive)
GI50 [11]: 17.1 µM (inactive)
GI50 [12]: 11.1 µM (inactive)
GI50 [13]: 13 µM (inactive)
GI50 [14]: 7.13 µM (inactive)
GI50 [15]: 9.93 µM (inactive)
GI50 [16]: 1.82 µM (inactive)
GI50 [17]: 13.5 µM (inactive)
GI50 [18]: 8.77 µM (inactive)
GI50 [19]: 3.75 µM (inactive)
GI50 [20]: 2.93 µM (inactive)

C1COCCN1.S=C(S)N1CCOCC1
GI50 [1]: 10.1 µM (inactive)
GI50 [2]: 8.24 µM (inactive)
GI50 [3]: > 100 µM (inactive)
GI50 [4]: 5.51 µM (inactive)
GI50 [5]: 0.526 µM (active)
GI50 [6]: > 100 µM (inactive)
GI50 [7]: > 100 µM (inactive)
GI50 [8]: 20.1 µM (inactive)
GI50 [9]: > 100 µM (inactive)
GI50 [10]: 94 µM (inactive)
GI50 [11]: > 100 µM (inactive)
GI50 [12]: 6.9 µM (inactive)
GI50 [13]: 12.5 µM (inactive)
GI50 [14]: > 100 µM (inactive)
GI50 [15]: 9.68 µM (inactive)
GI50 [16]: 7.59 µM (inactive)
GI50 [17]: 5.4 µM (inactive)
GI50 [18]: > 100 µM (inactive)
GI50 [19]: > 100 µM (inactive)
GI50 [20]: 4.98 µM (inactive)

COc1ccc(C(c2cc(OC)c(OC)c(OC)c2)N2C(=O)CCC2C(=O)O)cc1 (stereo not given)
GI50 [1]: 73.1 µM (inactive)
GI50 [2]: 40.2 µM (inactive)
GI50 [3]: 89.3 µM (inactive)
GI50 [4]: 79.6 µM (inactive)
GI50 [5]: 38.8 µM (inactive)
GI50 [6]: > 100 µM (inactive)
GI50 [7]: 62.1 µM (inactive)
GI50 [8]: 35.6 µM (inactive)
GI50 [9]: 21.8 µM (inactive)
GI50 [10]: 21.1 µM (inactive)
GI50 [11]: 74.3 µM (inactive)
GI50 [12]: > 100 µM (inactive)
GI50 [13]: 61.5 µM (inactive)
GI50 [14]: 46 µM (inactive)
GI50 [15]: > 100 µM (inactive)
GI50 [16]: 41.9 µM (inactive)
GI50 [17]: 60.1 µM (inactive)
GI50 [18]: 44.9 µM (inactive)
GI50 [19]: > 100 µM (inactive)
GI50 [20]: 38.3 µM (inactive)

CC(=O)Oc1c2oc3ccc(Cl)cc3c(=O)c2c(O)c2ccsc12
GI50 [1]: > 100 µM (inactive)
GI50 [2]: > 100 µM (inactive)
GI50 [3]: > 100 µM (inactive)
GI50 [4]: > 100 µM (inactive)
GI50 [5]: 86.1 µM (inactive)
GI50 [6]: > 100 µM (inactive)
GI50 [7]: 33.3 µM (inactive)
GI50 [8]: > 100 µM (inactive)
GI50 [9]: > 100 µM (inactive)
GI50 [10]: > 100 µM (inactive)
GI50 [11]: > 100 µM (inactive)
GI50 [12]: > 100 µM (inactive)
GI50 [13]: > 100 µM (inactive)
GI50 [14]: > 100 µM (inactive)
GI50 [15]: > 100 µM (inactive)
GI50 [16]: > 100 µM (inactive)
GI50 [17]: > 100 µM (inactive)
GI50 [18]: > 100 µM (inactive)
GI50 [19]: 27.6 µM (inactive)
GI50 [20]: > 100 µM (inactive)

COc1ccc2c(c1)C(=O)C1(C2)[C@H](c2ccccc2)C2C(=O)c3cc(OC)ccc3C2[C@H]1c1ccccc1 (stereo not given in full)
GI50 [1]: > 100 µM (inactive)
GI50 [2]: > 100 µM (inactive)
GI50 [3]: > 100 µM (inactive)
GI50 [4]: 1.75 µM (inactive)
GI50 [5]: 73.5 µM (inactive)
GI50 [6]: > 100 µM (inactive)
GI50 [7]: 74.6 µM (inactive)
GI50 [8]: > 100 µM (inactive)
GI50 [9]: > 100 µM (inactive)
GI50 [10]: > 100 µM (inactive)
GI50 [11]: > 100 µM (inactive)
GI50 [12]: > 100 µM (inactive)
GI50 [13]: > 100 µM (inactive)
GI50 [14]: 16.6 µM (inactive)
GI50 [15]: > 100 µM (inactive)
GI50 [16]: > 100 µM (inactive)
GI50 [17]: > 100 µM (inactive)
GI50 [18]: > 100 µM (inactive)
GI50 [19]: > 100 µM (inactive)
GI50 [20]: > 100 µM (inactive)

CCC/C(Cl)=N/OC(=O)Nc1cccc(F)c1
GI50 [1]: 1.69 µM (inactive)
GI50 [2]: 19.1 µM (inactive)
GI50 [3]: 1.55 µM (inactive)
GI50 [4]: 3.33 µM (inactive)
GI50 [5]: 0.526 µM (active)
GI50 [6]: 17.5 µM (inactive)
GI50 [7]: 9.75 µM (inactive)
GI50 [8]: 15.7 µM (inactive)
GI50 [9]: 11.9 µM (inactive)
GI50 [10]: 9.46 µM (inactive)
GI50 [11]: 14.6 µM (inactive)
GI50 [12]: 9.79 µM (inactive)
GI50 [13]: 19.1 µM (inactive)
GI50 [14]: 17 µM (inactive)
GI50 [15]: 21.7 µM (inactive)
GI50 [16]: 5.79 µM (inactive)
GI50 [17]: 17.3 µM (inactive)
GI50 [18]: 17.9 µM (inactive)
GI50 [19]: 2.38 µM (inactive)
GI50 [20]: 17.3 µM (inactive)
